We go through one substance from patent publication US20090227533A1, “miR-34 Regulated Genes and Pathways as Targets for Therapeutic Intervention” (priority 2007, published 2009).

One data set deals with HeLa. The note with it: cited from earlier work.
Data set [1] relates to lung cancer cells A549, H522, H596, Calu-3, HCC2935, H1650, H460, and H226. The data set is described as follows: Alamar Blue proliferation assay, average over eight lung cancer cell lines. It counts as cell-based, human. From the text:
(§1) The inventors assessed the therapeutic effect of hsa-miR-34a for lung cancer by using eight individual lung cancer cell lines. To measure cellular proliferation of lung cancer cells, the following non-small cell lung cancer (NSCLC) cells were used: cells derived from lung adenocarcinoma (A549, H522, Calu-3, HCC2935), cells derived from lung squamous cell carcinoma (H226), cell derived from lung adenosquamous cell carcinoma (H596), cells derived from lung bronchioalveolar carcinoma (H1650), and cells derived from lung large cell carcinoma (H460). Synthetic hsa-miR-34a (Pre-miR™-hsa-miR-34a, Ambion cat. no. AM17100) or negative control (NC) miRNA (Pre-miR™ microRNA Precursor Molecule-Negative Control #2; Ambion cat. no. AM17111) was delivered via lipid-based transfection into A549, H522, H596, Calu-3, HCC2935, H1650, H460 cells and via electroporation into H226 cells.
Lipid-based reverse transfections were carried out in triplicate according to a published protocol (Ovcharenko et al., 2005) and the following parameters: cells (5,000-12,000 per 96 well), 0.1-0.2 μl Lipofectamine™ 2000 (cat. no. 11668-019, Invitrogen Corp., Carlsbad, Calif., USA) in 20 μl OptiMEM (Invitrogen), 30 nM final concentration of miRNA in 100 μl. […]

The test system of a further data set is H460 cells. The data set is described as follows: Alamar Blue proliferation assay, lung cancer cells. The format is cell-based, human. Particulars: hsa-miR-34a 30 nM, lipid transfection, 72 hours, normalized to NC (100%).
Source text: as §1
(§2) Lipid-based reverse transfections were carried out in triplicate according to a published protocol (Ovcharenko et al., 2005) and the following parameters: cells (5,000-12,000 per 96 well), 0.1-0.2 μl Lipofectamine™ 2000 (cat. no. 11668-019, Invitrogen Corp., Carlsbad, Calif., USA) in 20 μl OptiMEM (Invitrogen), 30 nM final concentration of miRNA in 100 μl. Electroporation of H226 cells was carried out using the BioRad Gene Pulser Xcell™ instrument (BioRad Laboratories Inc., Hercules, Calif., USA) with the following settings: 5×10^6 cells with 5 μg miRNA in 200 μl OptiMEM (1.6 μM miRNA), square wave pulse at 250 V for 5 ms. Electroporated H226 cells were seeded at 7,000 cells per 96-well in a total volume of 100 μl. All cells except for Calu-3 cells were harvested 72 hours post transfection or electroporation for assessment of cellular proliferation. Calu-3 cells were harvested 10 days post transfection. Proliferation assays were performed using Alamar Blue (Invitrogen) following the manufacturer's instructions. As a control for inhibition of cellular proliferation, siRNA against the motor protein kinesin 11, also known as Eg5, was used. Eg5 is essential for cellular survival of most eukaryotic cells and a lack thereof leads to reduced cell proliferation and cell death (Weil et al., 2002). siEg5 was used in lipid-based transfection following the same experimental parameters that apply to miRNA. The inventors also used a DNA topoisomerase II inhibitor, etoposide, at a final concentration of 10 μM and 50 μM as an internal standard for the potency of miRNAs. Etoposide is an FDA-approved DNA topoisomerase II inhibitor in the treatment of lung cancer. […] Percent (%) proliferation values from the Alamar Blue assay were normalized to values from cells treated with negative control miRNA. Percent proliferation of hsa-miR-34a treated cells relative to cells treated with negative control miRNA (100%) is shown in Table 7 and in FIG. 1.
A general note: Resazurin is reduced to fluorescent resorufin, in cell work by metabolically active cells.

Another data set concerns Calu-3 cells. The data set is described as follows: Alamar Blue proliferation assay, lung cancer cells. The note with it: 10 days post transfection. It counts as cell-based, human.
Source text: as §1, §2

For another data set, the system named is HCC2935 cells. Put plainly: Alamar Blue proliferation assay, lung cancer cells. The format is cell-based, human. The note with it: hsa-miR-34a 30 nM, lipid transfection, 72 hours, normalized to NC (100%).
Source text: as §1, §2

For the next data set, the system named is A549 cells. The data set is described as follows: Alamar Blue proliferation assay, lung cancer cells. The format is cell-based, human. Particulars: hsa-miR-34a 30 nM, lipid transfection, 72 hours, normalized to NC (100%).
Source text: as §1, §2

In the next data set the test system is H1650 cells. Put plainly: Alamar Blue proliferation assay, lung cancer cells. The format is cell-based, human. Particulars: hsa-miR-34a 30 nM, lipid transfection, 72 hours, normalized to NC (100%).
Source text: as §1, §2

For a further data set, the system named is H596 cells. The data set is described as follows: Alamar Blue proliferation assay, lung cancer cells. It counts as cell-based, human. The note with it: hsa-miR-34a 30 nM, lipid transfection, 72 hours, normalized to NC (100%).
Source text: as §1, §2

For another data set, the system named is H522 cells. The data set is described as follows: Alamar Blue proliferation assay, lung cancer cells. It counts as cell-based, human. The note with it: hsa-miR-34a 30 nM, lipid transfection, 72 hours, normalized to NC (100%).
Source text: as §1, §2

In data set [2] the test system is H460 non-small cell lung cancer xenografts. Put plainly: Tumor growth of human lung cancer xenografts, intratumoral injection. The format is in vivo, NOD/SCID mice. From the text: The inventors assessed the growth-inhibitory activity of hsa-miR-34a in human lung cancer xenografts grown in immunodeficient mice. Each 3×10^6 human H460 non-small cell lung cancer cells were mixed with BD Matrigel™, (BD Biosciences; San Jose, Calif., USA; cat. no. 356237) in a 1:1 ratio and subcutaneously injected into the lower back of 23 NOD/SCID mice (Charles River Laboratories, Inc.; Wilmington, Mass., USA). Once animals developed palpable tumors (day 11 post xenograft implantation), a group of six animals received intratumoral injections of each 6.25 μg hsa-miR-34a (Dharmacon, Lafayette, Colo.) formulated with the lipid-based siPORT™ amine delivery agent (Ambion, Austin, Tex.; cat. no. AM4502) on days 11, 14, and 17. A control group of six animals received intratumoral injections of each 6.25 μg negative control miRNA (NC; Dharmacon, Lafayette, Colo.), following the same injection schedule that was used for hsa-miR-34a. Given an average mouse weight of 20 g, this dose equals 0.3125 mg/kg. […] Caliper measurements were taken every 1-2 days, and tumor volumes were calculated using the formula, Volume=length×width×width/2, in which the length is greater than the width. Average tumor volumes, standard deviations and p-values were calculated and plotted over time (FIG. 4).

The test system of a further data set is PPC-1 tumors. The data set is described as follows: Histology and immunohistochemistry (Ki-67, caspase 3) of xenograft tumors. It counts as in vivo, NOD/SCID mice. As for the experimental part:
To gain further insight into the biological status of these cells, immunohistochemistry analyses specific for the proliferation marker Ki-67, as well as caspase 3, an indicator of apoptosis were performed.

In another data set the test system is normal human T cells. Particulars: cited from earlier work.
Data set [3] has as its system cervical cancer cells (HeLa). Particulars: cited from earlier work.
The test system of data set [4] is basal cell carcinoma cells (TE354T). The note with it: cited from earlier work.
Setting [5] is: areas with viable cells in treated PPC-1 tumors.

For “hsa-miR-34a: synthetic miRNA; mature sequence UGGCAGUGUCUUAGCUGGUUGUU (MIMAT0000255; SEQ ID NO:1) (synthetic miRNA, chemistry not given here)”, the “programmed cell death (apoptosis)” value in the data set on HeLa is “decreased”. In addition, the “average inhibition of cellular proliferation” value in data set [1] (average over eight lung cancer cell lines, relative to negative control miRNA) was 25.30%. Also, the “growth-inhibitory activity compared with etoposide” value in [1] (lung cancer cell lines) is given as “comparable to that of etoposide at concentrations ≧10 μM”. The “% proliferation” value in the data set with H460 cells was 77.46%; with Calu-3 cells (Calu-3, hsa-miR-34a 30 nM, lipid transfection, normalized to NC (100%)), 28.51%; with HCC2935 cells it was 80.19%; in the data set with A549 cells, 75.95%; in the data set on H1650 cells it was 78.37%; in the data set on H596 cells, 73.19%. Besides, the “% proliferation” value with H522 cells is given as 94.41%. This substance registered a reduction of proliferation with Calu-3 cells (Calu-3 cells, 30 nM, relative to negative control miRNA) of 71.49%. Also, in data set [2] (day 19, 6.25 μg intratumoral in siPORT amine on days 11, 14, 17, n=6), the average tumor volume worked out at 196 mm^3. In data set [2] (three intratumoral doses), the “growth of established H460 lung tumors” value is recorded as “robustly inhibited growth”. The “tumor histology (hematoxylin and eosin)” value with PPC-1 tumors (PPC-1 tumors) is “consisted mostly of matrigel with cellular debris and sparsely distributed cells”. Moreover, the “Ki-67 (proliferation marker) immunohistochemistry” value in the data set on PPC-1 tumors (setting [5]) is “reduced levels”. Also, the “caspase 3 (apoptosis indicator) immunohistochemistry” value with PPC-1 tumors (setting [5]) was “increased levels”. Also, the proliferation entry with normal human T cells was “no anti-proliferative effect”; in data set [3], “inhibits the proliferation”; in data set [4], “inhibits the proliferation”.
